Measured values taken from PMC3369139, “Preclinical evaluation of two ^68Ga-siderophores as potential radiopharmaceuticals for Aspergillus fumigatus infection imaging” (European Journal of Nuclear Medicine and Molecular Imaging, 2012).
Where “and” joins values, the source holds several entries; their conditions need not be identical. Equal values may be shown once.

Assays:
A. fumigatus [1] = test: Ex vivo biodistribution in rat A. fumigatus infection model, standard; design: species or system Lewis rats
Protocol: (§1) The A. fumigatus (A29) isolate was grown on Sabouraud dextrose agar (BD) for 5 days at 37 °C, and the conidia were harvested in 2 ml of sterile NaCl by gently rubbing with a pipette tip. The conidia suspension was transferred into a sterile 50 ml plastic tube. After homogenization (vortex) and filtration (40 μm nylon cell strainer; BD), the suspension was counted in a Neubauer chamber and adjusted to the volitional concentration in the range 1 × 10^5 to 1 × 10^9 conidia per millilitre.
(§2) Female or male Lewis rats (2–3 months old), weighing 200–250 g, were treated as described previously. Briefly, the rats received repeated intraperitoneal injections of cyclophosphamide to induce neutropenia before A. fumigatus administration. To prevent bacterial superinfection, the animals were given antibiotics throughout the experiment. Fungal infection was established by intratracheal administration of 100–300 μl of A. fumigatus inoculum in various concentrations (1 × 10^5 to 1 × 10^9 conidia per millilitre). Animals were injected intravenously 1–3 days (depending on the severity of infection) after A. fumigatus administration with ^68Ga-labelled siderophore (10–20 MBq and 1–2 μg of siderophore per rat). The rats were imaged or killed by overdosing with thiopental (Sandoz, Kundl, Austria) 2 h after injection. Various organs and tissues (blood, spleen, kidneys, liver and lungs) were removed and radioactivity was measured in a γ-counter. The excised organs were investigated for the presence of fungi, as described below.
(§3) The excised organs were homogenized in a petri dish using a sterile surgical blade and transferred to Sabouraud dextrose agar (BD) plates. The plates were incubated at 37 °C and examined daily for 7 days. […] Severe infection was defined as the presence of severe fungal growth 1 day after incubation, mild infection was defined as the presence of minor growth up to 3 days after incubation, and no infection was defined as lack of growth within 1 week of incubation.

[2] = Protein binding in human serum; assay type: in vitro ADME
Protocol: (§4) TAFC and FOXE were labelled with ^68Ga using acetate buffer at room temperature for 15 min (TAFC) and at 80 °C for 20 min (FOXE). For all in vitro and in vivo studies, the pH of the final product was adjusted with 1.1 M sodium acetate to pH 6–7. The radiochemical purity, log P, protein binding and stability of ^68Ga-siderophores in various media were determined, as described previously.

[3] = test system: A. fumigatus wild-type ATCC46645; test: In vitro uptake of ^68Ga-siderophores by A. fumigatus cultures; assay type: cell-based, Aspergillus fumigatus; details: room temperature
Protocol: The Aspergillus strain used for in vitro studies was A. fumigatus wild-type ATCC46645 (American Type Culture Collection) cultured at 37 °C in Aspergillus minimal medium, containing 1 % glucose as the carbon source, 20 mM glutamine as the nitrogen source, salts and trace elements, as described previously. Iron-sufficient media contained […] FeSO4. For preparation of iron-deficient media, iron addition was omitted. Iron-deficient conditions were verified by detection of extracellular siderophore production, which is suppressed by iron.
Uptake by A. fumigatus in iron-deficient and iron-sufficient cultures was studied. For the monitoring of uptake over time, ^68Ga-siderophores (5 ng) were incubated in microbial media for 10, 20, 30, 45, 60 and 90 min at room temperature in 96-well plates (Millipore, Billerica, MA). For the monitoring of uptake blocking, excess of ferri-siderophore (Fe-TAFC or Fe-FOXE) and/or sodium azide was used. ^68Ga-siderophores were incubated in iron-deficient and iron-sufficient media for 45 min at room temperature in 96-well plates. The incubation was interrupted in both cases by filtration of the medium and rapid rinsing with ice-cold TRIS buffer. The filters were collected and counted in a γ-counter.

Stability in 6 mM DTPA = assay type: physicochemical
Protocol: as §4

[4] = Log P of ^68Ga-siderophores; assay type: physicochemical; details: determined as described previously [20]
Protocol: as §4

Stability in 0.1 M FeCl3 = assay type: physicochemical
Protocol: as §4

[5] = Metabolic stability in normal Balb/c mice (RP-HPLC of urine, blood, liver and kidney homogenates); assay type: in vivo; details: 30 min p.i., % intact on RP-HPLC
Protocol: Urine, blood, liver and kidneys of normal Balb/c mice injected with ^68Ga-siderophores and treated as described previously were collected 30 min after injection. The urine sample was directly injected onto the RP-HPLC column. Blood samples were precipitated with acetonitrile and centrifuged for 2 min, and the supernatant was injected onto the RP-HPLC column. Liver and kidneys were washed in the ice-cold TRIS buffer and liquidized using a mixer in a falcon tube containing 1 ml of TRIS buffer. The liver and kidney homogenates obtained were mixed with acetonitrile and centrifuged for 2 min, and the supernatant was injected onto the RP-HPLC column. In all cases 1 min fractions of the column eluate were collected and measured in a γ-counter. Samples were not collected at 90 min after injection because the measured activity was already low in the samples obtained 30 min after injection. All metabolic studies were performed using a previously described HPLC method.

A. fumigatus [6] = test: PET imaging in rat A. fumigatus infection model; assay type: in vivo, Lewis rats; details: infected rats, lungs, mean ± sd
Protocol: as §2
PET images were acquired with an Inveon animal PET/CT scanner (Siemens Preclinical Solutions, Knoxville, TN) with an intrinsic spatial resolution of 1.5 mm. The animals were placed in a prone position. Static PET images were acquired over 30 min starting 30 min after intravenous injection of ^68Ga-siderophore. Dynamic PET imaging was started upon injection and continued up to 60 min after injection. In addition, combined PET/CT scans were performed for anatomical reference. PET emission scans were acquired for 30 min, preceded by CT scans (spatial resolution 113 μm, 80 kV, 500 μA, exposure time 300 ms). After imaging, animals were killed by CO2/O2. Scans were reconstructed using Inveon Acquisition Workplace software (version 1.5; Siemens Preclinical Solutions, Knoxville, TN) using a 3-D ordered subset expectation maximization/maximum a posteriori (OSEM3D/MAP) algorithm with the following parameters: matrix 256 × 256 × 159, pixel size 0.43 × 0.43 × 0.8 mm^3 and a MAP prior β-value of 1.5.

Stability in human serum = assay type: in vitro ADME
Protocol: as §4

A. fumigatus [7] = test: Ex vivo biodistribution in rat A. fumigatus infection model, iron preload; design: species or system Lewis rats
Protocol: as §1, §2
Rats were treated as in the ‘standard’ infection model above, except that iron solution (FerMed; Medice, Iserlohn, Germany) 10 mg/kg was injected intraperitoneally three times (1 week, 4 days and 1 day) before A. fumigatus administration.
as §3

[8] = Biodistribution in normal Balb/c mice; assay type: in vivo; details: normal noninfected Balb/c mice, i.v. tail vein
Protocol: Normal noninfected Balb/c mice (female, 6 weeks old) were injected with ^68Ga-siderophore (2 MBq and 0.1–0.2 μg of siderophore per mouse) into the tail vein. Animals were killed by cervical dislocation 30 min and 90 min after injection. The organs and tissues (blood, spleen, pancreas, stomach, intestines, kidneys, liver, heart, lungs, muscle and femur) were removed and radioactivity was counted in a γ-counter. The results are expressed as percentage of injected dose per gram of tissue.

[9] = iron preload model, 2 h after injection

O=C1CCC(=O)N([O-])CCCCCNC(=O)CCC(=O)N([O-])CCCCCNC(=O)CCC(=O)N([O-])CCCCCN1.[68Ga+3] [^68Ga-FOXE, ferrioxamine E]
Lung/blood ratio, control (mean ± sd) (A. fumigatus [1]; 2 h after injection): 1.48 ± 0.33 (n=5)
Lung/blood ratio, mild infection (mean ± sd) (A. fumigatus [1]; 2 h after injection): 5.45 ± 5.57 (n=4)
Lung/blood ratio, severe infection (mean ± sd) (A. fumigatus [1]; 2 h after injection): 62.35 ± 77.98 (n=5)
Lung/kidneys ratio, control (mean ± sd) (A. fumigatus [1]; 2 h after injection): 0.07 ± 0.02 (n=5)
Lung/kidneys ratio, mild infection (mean ± sd) (A. fumigatus [1]; 2 h after injection): 0.38 ± 0.42 (n=4)
Lung/kidneys ratio, severe infection (mean ± sd) (A. fumigatus [1]; 2 h after injection): 3.33 ± 2.85 (n=5)
Lung/liver ratio, control (mean ± sd) (A. fumigatus [1]; 2 h after injection): 0.87 ± 0.27 (n=5)
Lung/liver ratio, mild infection (mean ± sd) (A. fumigatus [1]; 2 h after injection): 5.45 ± 5.85 (n=4)
Lung/liver ratio, severe infection (mean ± sd) (A. fumigatus [1]; 2 h after injection): 47.79 ± 39.48 (n=5)
Mild infection (%ID/g - lungs) (mean ± sd) (A. fumigatus [1]; mildly infected rats, lungs ex vivo 2 h after injection, n in cell): 0.48 ± 0.54 %ID/g and 0.48 ± 0.54 (n=4) %ID/g
Control (%ID/g - lungs) (mean ± sd) (A. fumigatus [1]; rats showing no infection, lungs ex vivo 2 h after injection, n in cell): 0.04 ± 0.02 %ID/g and 0.04 ± 0.02 (n=5) %ID/g
Severe infection (%ID/g - lungs) (mean ± sd) (A. fumigatus [1]; severely infected rats, lungs ex vivo 2 h after injection, γ-counter, n in cell): 3.45 ± 1.00 (n=5) %ID/g
Protein binding (%) ([2]; incubation time 30 min): 0.27%
Protein binding (%) ([2]; incubation time 60 min): 0.24%
Protein binding (%) ([2]; incubation time 120 min): 0.53%
Uptake by A. fumigatus in iron-deficient cultures ([3]; 5 ng ^68Ga-siderophore, 10-90 min, 96-well plates, filtration, γ-counter): rapid uptake
Blocking of uptake with excess of ferri-siderophore and/or sodium azide ([3]; iron-deficient cultures, 45 min incubation): could be blocked
Stability in 6-mM DTPA (%) (Stability in 6 mM DTPA; incubation time 30 min): 94.3%
Stability in 6-mM DTPA (%) (Stability in 6 mM DTPA; incubation time 60 min): 93.8%
Stability in 6-mM DTPA (%) (Stability in 6 mM DTPA; incubation time 120 min): 93.2%
Log P [4]: −1.65
Stability in 0.1-M FeCl3 (%) (Stability in 0.1 M FeCl3; incubation time 30 min): 92.9%
Stability in 0.1-M FeCl3 (%) (Stability in 0.1 M FeCl3; incubation time 60 min): 91.8%
Stability in 0.1-M FeCl3 (%) (Stability in 0.1 M FeCl3; incubation time 120 min): 94.5%
Stability in kidney homogenate (%) [5]: 97.6%
Stability in liver homogenate (%) [5]: 71.3%
Stability in urine (%) ([5]; γ-counter): 95.9%
Stability in blood (%) ([5]; acetonitrile precipitation): 97.7%
SUV (A. fumigatus [6]; calculated from PET imaging studies, n=10 (table)): 1.00 ± 0.81 (n=10)
Target/non-target ratio (A. fumigatus [6]; calculated from all PET imaging studies, n=13): 6.64 ± 2.91 (n=13)
Stability in all of the tested media (Stability in human serum; human serum, 0.1 M FeCl3 and 6 mM DTPA, summary bound over all media): ≥ 90%
Stability in human serum (%) (Stability in human serum; incubation time 30 min): 99.9%
Stability in human serum (%) (Stability in human serum; incubation time 60 min): 99.9%
Stability in human serum (%) (Stability in human serum; incubation time 120 min): 99.9%
Severe infection (%ID/g - lungs) (A. fumigatus [7]; iron preload model (10 mg/kg i.p. three times), severely infected rats, lungs 2 h after injection, n in cell): 1.72 (n=1) %ID/g
Lung/blood ratio, control (A. fumigatus [7]; [9]): 0.64 (n=2)
Lung/blood ratio, mild infection (A. fumigatus [7]; [9]): 0.81 (n=2)
Lung/blood ratio, severe infection (A. fumigatus [7]; [9]): 2.41 (n=1)
Lung/kidneys ratio, control (A. fumigatus [7]; [9]): 0.06 (n=2)
Lung/kidneys ratio, mild infection (A. fumigatus [7]; [9]): 0.12 (n=2)
Lung/kidneys ratio, severe infection (A. fumigatus [7]; [9]): 0.11 (n=1)
Lung/liver ratio, control (A. fumigatus [7]; [9]): 0.58 (n=2)
Lung/liver ratio, mild infection (A. fumigatus [7]; [9]): 1.17 (n=2)
Lung/liver ratio, severe infection (A. fumigatus [7]; [9]): 5.93 (n=1)
Mild infection (%ID/g - lungs) (A. fumigatus [7]; iron preload model, mildly infected rats, lungs 2 h after injection, n in cell): 0.14 (n=2) %ID/g
Control (%ID/g - lungs) (A. fumigatus [7]; iron preload model, rats showing no infection, lungs 2 h after injection, n in cell): 0.04 (n=2) %ID/g
Blood level ([8]; 30 min after injection): 2.4 ± 0.86 %ID/g
Intestinal accumulation ([8]; 30 min after injection): 4.6 ± 1.42 %ID/g
Intestinal accumulation ([8]; 90 min after injection): 2.4 ± 0.85 %ID/g
